In PubChem BioAssay (NCI):
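Method: 48-hour compound exposure of cells in 96-well plates, five concentrations, linear interpolation of endpoints. TGI marks complete inhibition of growth.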

What was measured:
Assay in all cases: NCI anticancer screen, dose series, 48 h
[1] = system: SF-295 CNS
[2] = system: HOP-62 NSCLC
[3] = system: ACHN renal
[4] = system: SNB-19 CNS
[5] = system: EKVX NSCLC
[6] = system: DU-145 prostate
[7] = system: MOLT-4 leukemia
[8] = system: A498 renal
[9] = system: SR leukemia
[10] = system: T-47D breast
[11] = system: HOP-92 NSCLC
[12] = system: NCI-H460 lung
[13] = system: OVCAR-3 ovarian
[14] = system: SNB-75 CNS
[15] = system: UO-31 renal
[16] = system: CCRF-CEM leukemia
[17] = system: HCC-2998 colon
[18] = system: U251 CNS
[19] = system: OVCAR-5 ovarian
[20] = system: K-562 leukemia

Structure (SMILES) | TGI [1] [µM] | TGI [2] [µM] | TGI [3] [µM] | TGI [4] [µM] | TGI [5] [µM] | TGI [6] [µM] | TGI [7] [µM] | TGI [8] [µM] | TGI [9] [µM] | TGI [10] [µM] | TGI [11] [µM] | TGI [12] [µM] | TGI [13] [µM] | TGI [14] [µM] | TGI [15] [µM] | TGI [16] [µM] | TGI [17] [µM] | TGI [18] [µM] | TGI [19] [µM] | TGI [20] [µM]
COc1cc(OC)nc(-n2c(N)c(C#N)c3ccc([N+](=O)[O-])cc3c2=O)n1 | > 100 | > 100 | > 100 | > 100 | > 100 | > 100 | > 100 | > 100 | > 100 | > 100 | > 100 | > 100 | > 100 | > 100 | > 100 | > 100 | > 100 | > 100 | > 100 | –
O=C(CCc1ccc(O)c(O)c1)NCCc1cc(O)cc(O)c1 | > 100 | > 100 | > 100 | > 100 | > 100 | > 100 | > 100 | > 100 | > 100 | > 100 | > 100 | > 100 | > 100 | > 100 | > 100 | > 100 | > 100 | > 100 | > 100 | 79.4
COC(=O)C1CN=CN1CCc1ccccc1 (stereo unspecified) | > 100 | – | > 100 | > 100 | > 100 | > 100 | > 100 | > 100 | > 100 | > 100 | > 100 | > 100 | > 100 | > 100 | > 100 | > 100 | > 100 | > 100 | > 100 | > 100
CC(C)OCC1CC(CC(=O)Nc2nncs2)C(=O)O1 (stereo unspecified) | > 100 | > 100 | > 100 | > 100 | > 100 | > 100 | > 100 | – | > 100 | > 100 | > 100 | > 100 | > 100 | > 100 | > 100 | > 100 | > 100 | > 100 | > 100 | > 100
O=c1c2nc3ccccc3c(=O)n2ncn1-c1ccccc1Cl | > 100 | > 100 | > 100 | > 100 | > 100 | > 100 | – | > 100 | > 100 | > 100 | > 100 | > 100 | > 100 | > 100 | > 100 | > 100 | > 100 | > 100 | > 100 | > 100
CN(C)C(=S)/N=c1\ssc(=S)n1Cc1ccccc1 | 6.29 | 20.7 | > 56.2 | > 56.2 | 57.6 | 21.7 | 29 | > 69.5 | 37.3 | > 31.6 | 7.63 | 22.6 | 0.512 | 3.29 | 54 | 49.6 | > 27.7 | 18.6 | > 63.1 | 12.5
COc1cc2c(cc1OCCCCN1C(=O)c3cccc4cccc(c34)C1=O)N=C[C@@H]1CCCN1C2=O | 45.8 | 33.6 | 5.2 | > 52.3 | 44.6 | 14.3 | > 100 | 13.9 | > 100 | 37.1 | > 45.8 | 14.4 | 10.4 | – | 3.4 | 5.08 | 20.5 | > 33.9 | > 100 | > 100
CC(=O)Oc1ccc(-c2cc3ccccc3oc2=O)cc1 | > 100 | > 100 | > 100 | > 100 | > 100 | > 100 | > 100 | > 100 | > 100 | > 100 | > 100 | > 100 | 70.9 | > 100 | > 100 | > 100 | > 100 | > 100 | > 100 | > 100
COc1cc2c(cc1OC)C(=O)/C(=C/c1ccc(Cl)cc1)CC2 | > 10 | > 10 | > 10 | > 10 | > 10 | > 10 | > 10 | > 10 | > 10 | > 10 | > 10 | > 10 | > 10 | – | > 10 | > 10 | > 10 | > 10 | > 10 | > 10
O=S(=O)(O)C(=Nc1cccc(Cc2ccccc2)c1)Nc1cccc(Cc2ccccc2)c1 | 34.3 | > 100 | 38.7 | 48.5 | 30.9 | 35.4 | 83.4 | 45.8 | 69.7 | 32.1 | 28.6 | – | – | 30.6 | 29.5 | 98 | 35.5 | 37.8 | 33.7 | > 100
Cc1cccc(CP(Cc2cccc(C)c2)CC2(Cp3c4ccccc4c4ccccc43)COC2)c1 | > 100 | > 100 | > 100 | > 31.6 | > 100 | > 100 | 37.8 | > 100 | > 94.4 | > 100 | > 100 | > 100 | > 100 | > 100 | > 100 | > 100 | > 100 | > 100 | > 100 | > 100
CC(C)(C)OC(=O)N1CCC(C(=O)O)CC1 | > 100 | > 100 | > 100 | > 100 | > 100 | > 100 | > 100 | > 100 | > 100 | > 100 | > 100 | > 100 | > 100 | > 100 | > 100 | > 100 | > 100 | > 100 | > 100 | –
Nc1ccc2c(SCc3ccc([N+](=O)[O-])cc3)c3ccccc3nc2c1 | 36.8 | 46.5 | 14.5 | 59.1 | 59 | 17.9 | 6.73 | 49.2 | 5.05 | 22.6 | 36.4 | 47.2 | 30.2 | 34.7 | 27.2 | 5.15 | > 54 | 38.1 | 35.9 | 27.9
COc1ccc(-n2cnc3c2NC(C)(C)N=C3C(N)=O)c(OC)c1 | > 100 | > 100 | > 100 | > 100 | > 100 | > 100 | – | > 100 | > 100 | > 100 | > 100 | > 100 | > 100 | > 100 | – | > 100 | > 100 | > 100 | > 100 | > 100
CCOC(=O)c1nc2ccccc2nc1NCc1cc(OC)c(OC)c(OC)c1 | > 100 | > 100 | > 100 | – | > 100 | > 100 | > 100 | 96.2 | > 100 | > 100 | > 100 | > 100 | > 100 | > 100 | > 100 | > 100 | > 100 | > 100 | > 100 | > 100
O=c1ccn([C@@H]2C[C@@H]2CO)c(=O)[nH]1 | – | > 100 | > 100 | > 100 | > 100 | > 100 | – | > 100 | > 100 | > 100 | > 100 | > 100 | – | > 100 | > 100 | > 100 | > 100 | > 100 | > 100 | > 100
COc1cc(CO)c(CC(=O)NCCCc2ccccc2)cc1OC | – | > 100 | > 100 | > 100 | > 100 | > 100 | > 100 | > 100 | > 100 | > 100 | > 100 | > 100 | > 100 | > 100 | > 100 | > 100 | > 100 | > 100 | > 100 | > 100
CCCN(CCCc1ccccc1)CCc1ccc2[nH]c(=S)[nH]c2c1 | 26 | > 100 | > 100 | 91.7 | > 100 | > 100 | 54 | > 100 | 25.1 | 43.2 | 42.6 | 26.1 | > 100 | 68.3 | 51.4 | – | 26 | > 100 | > 100 | 29.3
CN1CCN(c2ncc3c(n2)sc2c(=O)n(-c4ccccc4)cnc23)CC1 | > 100 | > 100 | > 100 | > 100 | – | > 100 | > 100 | > 100 | > 100 | > 100 | > 100 | > 100 | > 100 | > 100 | > 100 | > 100 | > 100 | > 100 | > 100 | > 100
Clc1cc(Cl)cc(C=NC23CC4CC(CC(C4)C2)C3)c1 | > 10 | > 10 | > 10 | > 10 | > 10 | > 10 | > 10 | > 10 | > 10 | > 10 | > 10 | > 10 | > 10 | > 10 | – | > 10 | > 10 | > 10 | > 10 | > 10
CCCCCCC(=O)O[C@H]1CC[C@H]2[C@@H]3CCC4C/C(=N/NC(=O)c5cccc6c(=O)c7ccccc7[nH]c56)C=C(C)[C@]4(C)[C@H]3CC[C@]12C (stereo partly specified) | > 25 | > 25 | > 25 | > 25 | > 25 | > 25 | > 25 | – | > 25 | > 25 | > 25 | – | > 25 | > 25 | > 25 | > 25 | > 25 | > 25 | > 25 | > 25
CCCCc1ccc(Nc2nc(SC)c3[nH]cnc3n2)cc1 | > 100 | 57.7 | > 100 | > 100 | > 100 | > 100 | > 100 | > 78.5 | 9.69 | > 100 | > 100 | > 100 | > 93.5 | > 100 | > 100 | 12.3 | > 100 | > 100 | > 100 | > 31.3
Cn1c2ccc3cc2c(=S)c2cc(ccc21)OCCOCCOCCOCCOCCO3 | > 10 | > 10 | > 10 | > 10 | > 10 | > 10 | > 10 | > 10 | > 10 | > 10 | > 10 | > 10 | > 10 | > 10 | – | > 10 | > 10 | > 10 | > 10 | > 10
Cc1cn(C2CC(O)C(COC(=O)NCCC(F)(F)C(F)(F)C(F)(F)C(F)(F)F)O2)c(=O)[nH]c1=O (stereo unspecified) | > 100 | > 100 | > 100 | > 100 | > 100 | > 100 | > 100 | > 100 | > 100 | > 100 | > 100 | > 100 | > 100 | > 100 | > 100 | > 100 | > 100 | > 100 | > 100 | > 100
N#CC(=C1CCN(CCCC(=O)c2ccc(F)cc2)CC1)c1ccccc1 | > 100 | – | > 100 | > 100 | > 100 | > 100 | > 100 | > 100 | > 100 | > 100 | > 100 | > 100 | – | > 100 | > 100 | > 100 | > 100 | > 100 | > 100 | > 100
